Test results reported in paper PMC7845594, “Novel Immune Modulators Enhance Caenorhabditis elegans Resistance to Multiple Pathogens” (mSphere, 2021).

Tested on: glp-4(bn2) worms reared on RNAi, exposed to P. aeruginosa PA14
Assay: P. aeruginosa liquid killing assay after RNAi knockdown
Type: in vivo, Caenorhabditis elegans
Settings: for Rescue in liquid killing after mdt-15(RNAi): P. aeruginosa PA14, LK56 at 32 µM; for Rescue in liquid killing after RNAi of a panel of phosphatases, kinases, transcription factors and most upregulated genes: Fig S4A
From the text: Based on the presence of effectors for well-known innate immune pathways in the transcriptional profiles of C. elegans exposed to LK molecules, we predicted that the compounds were acting through one or more of these pathways, despite the low levels of reporter activation. To test this, RNAi was used to knock down daf-16/FOXO, elt-2/GATA, pmk-1/p38 MAPK, atf-7/ATF7, or skn-1/Nrf2. Sterile, young adult glp-4(bn2) worms were then exposed to P. aeruginosa under liquid killing conditions in the presence of either DMSO or one of the immunostimulatory compounds.
RNAi conditions measured at different time points are represented by different graphs within the same panel. […] At least six wells, containing 20 worms each, were used per biological replicate to determine survival for each condition, and averages from at least three biological replicates are shown. *, P < 0.05; **, P < 0.01; ***, P < 0.001. P values were calculated using Student’s t test. Error bars represent standard error of the mean.
(A) Sterile, young adult glp-4(bn2) worms were reared on RNAi targeting irid-28, F38B2.4, T24B8.5, mex-5, Y105C5B.15, comt-4, or empty vector and then exposed to P. aeruginosa in the liquid killing assay. (B) Sterile, young adult glp-4(bn2) worms were reared on RNAi targeting met-2, osm-8, rde-4, oga-1, daf-2, lin-35, glp-1, dpy-10, or dpy-9 and then exposed to P. aeruginosa in the liquid killing assay. These genes were chosen using WormEXP with the criterion that gene expression after mutation would be similar (in terms of upregulation and downregulation) to exposure to LK56. Endpoints were collected at different times (to allow DMSO-treated worms to be approximately 30 to 50% dead). Assays collected at different time points are shown on different graphs. […] For each experiment, three biological replicates were performed, with each replicate comprised of six wells with 20 worms/well. Error bars represent standard error of the mean. *, P < 0.05; **, P < 0.01; ***, P < 0.001. P values were calculated using Student’s t test. Download FIG S4, PDF file, 0.2 MB.
Due to its strong rescue and unique transcriptional profile, we also created a panel of genes to test for LK56. […] This effect was specific, since mdt-15(RNAi) had no effect on the ability of LK35 or LK38 to rescue in this assay (Fig. 7B). Importantly, MDT-15 was also required for LK56-mediated rescue in E. faecalis and S. aureus pathogenesis assays (Fig. 7C).
FIG 7 Rescue from pathogens by LK56 requires […]. (A and B) Young adult glp-4(bn2) worms reared on vector or mdt-15(RNAi) were incubated with P. aeruginosa strain PA14 in the liquid killing assay with or without LK56 at 32 µM. (B) Young adult glp-4(bn2) worms reared on vector or mdt-15(RNAi) were exposed to P. aeruginosa PA14 in the liquid killing assay in the presence of LK35, LK38, or DMSO. (C) Young adult glp-4(bn2) worms reared on vector or mdt-15(RNAi) and then exposed to E. faecalis or S. aureus in liquid-based assays in the presence or absence of LK56 at 32 µM. (D) Young adult glp-4(bn2) worms reared on vector, nhr-49(RNAi), or nhr-45(RNAi) were incubated with P. aeruginosa PA14 in the liquid killing assay with or without LK56 at 32 µM. Each replicate included at least six wells, with approximately 20 worms per well. The data shown are mean values from a representative replicate. *, P < 0.05; **, P < 0.01; ***, P < 0.001. P values were calculated using Student’s t test. Error bars represent the standard error of the mean. At least three biological replicates were performed.
MDT-15 partners with at least two different nuclear hormone receptors, NHR-45 and NHR-49, to regulate gene expression.

| Structure (SMILES) | Rescue in liquid killing after nhr-49(RNAi) (P. aeruginosa PA14, 32 µM) | Rescue in liquid killing after mdt-15(RNAi) | Rescue in liquid killing after RNAi of a panel of phosphatases, kinases, transcription factors and most upregulated genes |
| --- | --- | --- | --- |
| O=c1cc(CNc2ccc(Br)cc2)nc2sccn12 [LK56] | abolished compound rescue | completely abolish LK56-dependent rescue | – |
| CNC(=O)Oc1c(Br)cc2sc(=O)oc2c1Br [LK34] | – | – | rescue was unchanged |
| CN(C)/N=N/c1ccc(-c2cn(Cc3ccccc3)cn2)cc1 [LK38] | – | no effect | rescue was unchanged |
| CCN(CC)/N=N/c1ccc(C(=O)O)cc1 [LK35] | – | no effect | rescue was unchanged |
